ChEMBL document CHEMBL5247656, “Discovery of a Potent, Cooperative, and Selective SOS1 PROTAC ZZ151 with In Vivo Antitumor Efficacy in KRAS-Mutant Cancers” (J Med Chem, 2023)
Calls of active or inactive are those of the source. No cut-off for these calls is given here.

What was measured:
[1] = target: T1, von Hippel-Lindau disease tumor suppressor/Son of sevenless homolog 1 (Homo sapiens) (UniProt Q07889+P40337); assay: PROTAC activity at VHL/SOS1 in human NCI-H358 cells assessed as induction of SOS1 protein degradation by measuring maximal efficacy at 2 to 2000 nM incubated for 24 hrs by Immunoblot analysis relative to control; assay type: cell-based; details: dose 2-2000 nM
[2] = target: T2, Son of sevenless homolog 1 (Homo sapiens) (UniProt Q07889); assay: Co-operativity factor, ratio of Kd for binding affinity to GST-tagged human SOS1 (564 to 1049 reisudes) expressed in Escherichia coli BL21 (DE3) cells assessed as binary complex formation to Kd for binding affinity to GST-tagged human SOS1 (564 to 1049 residues) expressed in Escherichia coli BL21 (DE3) cells assessed as ternary complex formation in the presence of 6His tagged human VCB
T2 sequence (whole entry): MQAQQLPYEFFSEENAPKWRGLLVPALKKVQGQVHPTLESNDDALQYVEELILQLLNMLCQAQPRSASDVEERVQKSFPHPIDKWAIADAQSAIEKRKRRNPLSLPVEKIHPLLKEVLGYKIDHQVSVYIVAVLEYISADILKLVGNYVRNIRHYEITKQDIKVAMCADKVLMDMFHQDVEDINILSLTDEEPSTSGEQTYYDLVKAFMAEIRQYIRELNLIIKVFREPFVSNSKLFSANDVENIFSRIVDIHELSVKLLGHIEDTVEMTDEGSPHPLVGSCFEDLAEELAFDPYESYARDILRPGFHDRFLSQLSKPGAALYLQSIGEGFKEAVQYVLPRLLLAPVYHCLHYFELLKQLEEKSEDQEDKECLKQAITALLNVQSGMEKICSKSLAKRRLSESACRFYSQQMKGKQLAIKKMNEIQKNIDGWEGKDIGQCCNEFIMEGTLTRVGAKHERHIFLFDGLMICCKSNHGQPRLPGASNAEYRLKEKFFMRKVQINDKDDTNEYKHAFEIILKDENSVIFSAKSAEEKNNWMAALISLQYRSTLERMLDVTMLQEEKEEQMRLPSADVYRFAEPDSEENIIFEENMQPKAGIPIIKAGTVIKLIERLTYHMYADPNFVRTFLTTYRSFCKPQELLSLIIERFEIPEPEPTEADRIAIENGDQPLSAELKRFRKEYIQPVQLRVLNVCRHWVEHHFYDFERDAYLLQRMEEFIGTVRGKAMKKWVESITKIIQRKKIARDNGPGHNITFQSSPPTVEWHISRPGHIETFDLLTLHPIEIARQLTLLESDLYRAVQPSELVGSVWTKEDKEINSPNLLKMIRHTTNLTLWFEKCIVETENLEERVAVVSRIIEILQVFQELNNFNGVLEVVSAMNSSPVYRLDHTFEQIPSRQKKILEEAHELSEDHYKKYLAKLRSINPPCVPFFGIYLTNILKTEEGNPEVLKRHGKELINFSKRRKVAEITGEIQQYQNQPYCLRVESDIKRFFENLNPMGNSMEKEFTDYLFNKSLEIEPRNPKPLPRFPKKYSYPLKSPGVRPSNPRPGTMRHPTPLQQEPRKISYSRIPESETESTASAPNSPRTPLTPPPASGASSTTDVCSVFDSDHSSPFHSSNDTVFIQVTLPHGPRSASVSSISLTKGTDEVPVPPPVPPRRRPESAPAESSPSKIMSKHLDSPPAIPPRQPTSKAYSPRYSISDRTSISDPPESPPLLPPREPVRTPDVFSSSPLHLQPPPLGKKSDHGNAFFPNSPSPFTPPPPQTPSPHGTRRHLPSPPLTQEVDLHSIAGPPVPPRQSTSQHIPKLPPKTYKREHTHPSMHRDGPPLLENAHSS

[3] = target: T3, Son of sevenless homolog 1 (Homo sapiens, UniProt Q07889); assay: (§1) Binding affinity to GST-tagged human SOS1 (564 to 1049 residues) expressed in Escherichia coli BL21 (DE3) cells assessed as binary complex formation by measuring dissociation constant incubated for 15 mins by fluorescence polarization-based displacement assay
T3 sequence (Q07889 whole entry): T2 sequence (whole entry)

[4] = target: T1, von Hippel-Lindau disease tumor suppressor/Son of sevenless homolog 1 (Homo sapiens); assay: PROTAC activity at VHL/SOS1 in human NCI-H358 cells assessed as induction of SOS1 protein degradation at 0.1 uM incubated for 24 hrs by Immunoblot analysis relative to control; assay type: cell-based
[5] = target: von Hippel-Lindau disease tumor suppressor/Son of sevenless homolog 1/Elongin-B/Elongin-C (Homo sapiens) (UniProt Q07889+P40337+Q15370+Q15369); assay: Binding affinity to GST tagged human SOS1(564 to 1049 residues)-6his tagged human VHL (54 to 213 residues)-human ElonginC (17 to 112 residues)-human ElonginB (1 to 104 residues) expressed in Escherichia coli BL21 (DE3) cells assessed as ternary complex formation by measuring maximal HTRF signals incubated for 15 mins by HTRF analysis
[6] = target: T1, von Hippel-Lindau disease tumor suppressor/Son of sevenless homolog 1 (Homo sapiens); assay: PROTAC activity at VHL/SOS1 in human NCI-H358 cells assessed as induction of SOS1 protein degradation at 1.0 uM incubated for 24 hrs by Immunoblot analysis relative to control; assay type: cell-based
[7] = target: T3, Son of sevenless homolog 1; assay: as §1, with “ternary” for “binary”, “mins in the presence of 6His tagged human VCB” for “mins”
NCI-H358 = assay: Antiproliferative activity against human NCI-H358 cells harboring KRAS G12C mutant assessed as inhibition of cell proliferation incubated for 7 days by CellTiterGlo-3D proliferation assay; assay type: functional, cell-based; details: NCI-H358, 168 h
ASPC1 [8] = assay: Antitumor activity against human ASPC1 cells harboring KRAS G12D mutant xenografted in BALB/c nude mouse assessed as tumor growth inhibition at 50 mg/kg, ip administered twice daily for 3 weeks relative to control; assay type: functional; details: ASPC1, 504 h, read-out: TGI
SW-620 [9] = assay: Antiproliferative activity against human SW620 cells harboring KRAS G12V mutant assessed as inhibition of cell proliferation incubated for 7 days by CellTiterGlo-3D proliferation assay; assay type: functional, cell-based; details: SW-620, 168 h
ASPC1 [10] = assay: In vivo Inhibition of ERK in human ASPC1 cells harboring KRAS G12D mutant xenografted BALB/c nude mouse assessed as inhibition of ERK phosphorylation in tumor at 50 mg/kg, ip administered twice daily for 3 weeks by immunohistochemical analysis; assay type: functional, organism-based
[11] = Toxicity in BALB/c nude mouse xenografted with human SW620 cells harboring KRAS G12V mutant assessed as body weight loss at 50 mg/kg, ip administered twice daily for 2 weeks; assay type: organism-based, SW-620; details: in vivo, 336 h
ASPC1 [12] = assay: Antiproliferative activity against human ASPC1 cells harboring KRAS G12D mutant assessed as inhibition of cell proliferation incubated for 7 days by CellTiterGlo-3D proliferation assay; assay type: functional, cell-based; details: ASPC1, 168 h
[13] = Toxicity in BALB/c nude mouse xenografted with human ASPC1 cells harboring KRAS G12D mutant assessed as body weight loss at 50 mg/kg, ip administered twice daily for 3 weeks; assay type: organism-based; details: in vivo, 504 h
A549 = assay: Antiproliferative activity against human A549 cells harboring KRAS G12S mutant assessed as inhibition of cell proliferation incubated for 7 days by CellTiterGlo-3D proliferation assay; assay type: functional, cell-based; details: A549, 168 h
SW-620 [14] = assay: In vivo Inhibition of ERK in human SW620 cells harboring KRAS G12V mutant xenografted BALB/c nude mouse assessed as inhibition of ERK phosphorylation at 50 mg/kg, ip administered twice daily for 2 weeks by Immunoblot analysis; assay type: functional, organism-based
ASPC1 [15] = assay: In vivo Inhibition of ERK in human ASPC1 cells harboring KRAS G12D mutant xenografted BALB/c nude mouse assessed as inhibition of ERK phosphorylation at 50 mg/kg, ip administered twice daily for 3 weeks by Immunoblot analysis; assay type: functional, organism-based
SW-620 [16] = assay: In vivo Inhibition of ERK in human SW620 cells harboring KRAS G12V mutant xenografted BALB/c nude mouse assessed as inhibition of ERK phosphorylation in tumor at 50 mg/kg, ip administered twice daily for 2 weeks by immunohistochemistry analysis; assay type: functional, organism-based
PANC-1 = assay: Antiproliferative activity against human PANC-1 cells harboring KRAS G12D mutant assessed as inhibition of cell proliferation incubated for 7 days by CellTiterGlo-3D proliferation assay; assay type: functional, cell-based; details: PANC-1, 168 h
MIA PaCa-2 = assay: Antiproliferative activity against human MIA PaCa-2 cells harboring KRAS G12C mutant assessed as inhibition of cell proliferation incubated for 7 days by CellTiterGlo-3D proliferation assay; assay type: functional, cell-based; details: MIA PaCa-2, 168 h
LoVo = assay: Antiproliferative activity against human LoVo cells harboring KRAS G13D mutant assessed as inhibition of cell proliferation incubated for 7 days by CellTiterGlo-3D proliferation assay; assay type: functional, cell-based; details: 168 h
SW-620 [17] = assay: Antitumor activity against human SW620 cells harboring KRAS G12V mutant xenografted in BALB/c nude mouse assessed as tumor growth inhibition at 50 mg/kg, ip administered twice daily for 2 weeks relative to control; assay type: functional; details: SW-620, 336 h, read-out: TGI
[18] = target: T1, von Hippel-Lindau disease tumor suppressor/Son of sevenless homolog 1 (Homo sapiens); assay: PROTAC activity at VHL/SOS1 in human ASPC1 cells harboring KRAS G12D mutant assessed as induction of SOS1 degradation upto 10 uM incubated for 24 hrs by immunoblotting analysis; assay type: cell-based
[19] = target: T1, von Hippel-Lindau disease tumor suppressor/Son of sevenless homolog 1 (Homo sapiens); assay: PROTAC activity at VHL/SOS1 in human NCI-H358 cells harboring KRAS G12C mutant assessed as induction of SOS1 degradation upto 10 uM incubated for 24 hrs by immunoblotting analysis; assay type: cell-based

| Emax [1] | Ratio [2] | Kd [3] | Activity [4] | Activity [5] | Activity [6] | Kd [7] | Compound | IC50 (NCI-H358) | IC50 (SW-620 [9]) | IC50 (ASPC1 [12]) | IC50 (A549) | IC50 (PANC-1) | IC50 (MIA PaCa-2) | IC50 (LoVo) | further results |
| --- | --- | --- | --- | --- | --- | --- | --- | --- | --- | --- | --- | --- | --- | --- | --- |
| 42.9% | 2.8 | 75.7 nM | 16.4% | inactive | 37% | 26.7 nM | COc1cc2nc(C)nc(N[C@H](C)c3cc(N)cc(C(F)(F)F)c3)c2cc1C1CCN(C(=O)CCCCC(=O)N[C@H](C(=O)N2C[C@H](O)C[C@H]2C(=O)N[C@@H](C)c2ccc(-c3scnc3C)cc2)C(C)(C)C)CC1 | – | – | – | – | – | – | – | – |
| 20.9% | 2.3 | 63.5 nM | 1.36% | inactive | 6.52% | 27.8 nM | COc1cc2nc(C)nc(N[C@H](C)c3cc(N)cc(C(F)(F)F)c3)c2cc1C1CCN(C(=O)CCCOCC(=O)N[C@H](C(=O)N2C[C@H](O)C[C@H]2C(=O)N[C@@H](C)c2ccc(-c3scnc3C)cc2)C(C)(C)C)CC1 | – | – | – | – | – | – | – | – |
| – | – | – | – | – | – | – | COc1cc2nc(C)nc(N[C@H](C)c3cc(N)cc(C(F)(F)F)c3)c2cc1O[C@H]1CCOC1 | 16.5 nM | 30.1 nM | 64.4 nM | 263 nM | 17.8 nM | 24.8 nM | 142 nM | inhibition in vivo at 50 mg/kg (ASPC1 [8]): 43.6%; inhibition (ASPC1 [10]): Active; Activity [11]: Non-Toxic; Activity [13]: Non-Toxic; inhibition (SW-620 [14]): Active; inhibition (ASPC1 [15]): Active; inhibition (SW-620 [16]): Active; inhibition in vivo at 50 mg/kg (SW-620 [17]): 61.4% |
| – | – | – | – | – | – | – | COc1cc2nc(C)nc(N[C@H](C)c3cc(N)cc(C(F)(F)F)c3)c2cc1C1CCN(C(=O)CCCCCC(=O)N[C@H](C(=O)N2C[C@@H](O)C[C@H]2C(=O)N[C@@H](C)c2ccc(-c3scnc3C)cc2)C(C)(C)C)CC1 | 457 nM | 303 nM | 302 nM | 731 nM | 188 nM | 957 nM | > 1000 nM | Activity [18]: inactive; Activity [19]: inactive |
